Consider 20 compounds from US8536172B2, “Inhibitors of JNK” (Roche Palo Alto LLC, priority 2009, dated 2013).

Chain of Human JNK2α2 (P45984 whole entry): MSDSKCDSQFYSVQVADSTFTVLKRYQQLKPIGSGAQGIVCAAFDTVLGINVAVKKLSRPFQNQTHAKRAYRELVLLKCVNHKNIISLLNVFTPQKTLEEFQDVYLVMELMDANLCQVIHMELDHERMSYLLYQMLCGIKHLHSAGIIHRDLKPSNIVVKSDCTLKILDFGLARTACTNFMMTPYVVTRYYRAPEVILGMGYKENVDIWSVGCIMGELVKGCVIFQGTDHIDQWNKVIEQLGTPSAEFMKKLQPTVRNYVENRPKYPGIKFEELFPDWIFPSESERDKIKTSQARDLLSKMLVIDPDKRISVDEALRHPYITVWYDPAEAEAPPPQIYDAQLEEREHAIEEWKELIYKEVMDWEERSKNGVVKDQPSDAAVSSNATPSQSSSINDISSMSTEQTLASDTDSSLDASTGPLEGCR

The assay has as its target Human JNK2α2 (Homo sapiens (Human), UniProt P45984). The assay is described as follows: JNK assay in vitro: phosphorylation of GST-ATF2 (19-96) with [γ-33P] ATP, JNK2. Type of assay: biochemical. The settings on record: 1 nM enzyme, 1 μM ATF2, 8 μM ATP (Km), 30° C. 30 min. On the procedure:
JNK activity was measured by phosphorylation of GST-ATF2 (19-96) with [γ-^33P] ATP. […] Human JNK2α2 assay contains 1 nM enzyme, 1 μM ATF2, 8 μM ATP with 1 uCi [γ-^33P] ATP. Human JNK1α1 assay contains 2 nM enzyme, 1 μM ATF2, 6 μM ATP with 1 μCi [γ-^33P] ATP. Human JNK3 (Upstate Biotech #14-501M) assay contains 2 nM enzyme, 1 μM ATF2, 4 μM ATP with 1 μCi [γ-^33P] ATP. The enzyme assay was carried out in the presence or absence of several compound concentrations. JNK and compound were pre-incubated for 10 min., followed by initiation of the enzymatic reaction by adding ATP and the substrate. The reaction mixture was incubated at 30° C. for 30 min. At the end of incubation, the reaction was terminated by transferring 25 μl of the reaction mixture to 150 μl of 10% glutathione Sepharose® slurry (Amersham #27-4574-01) containing 135 mM EDTA. The reaction product was captured on the affinity resin, and washed on a filtration plate (Millipore, MABVNOB50) with phosphate buffered saline for six times to remove free radionucleotide. The incorporation of ^33P into ATF2 was quantified on a microplate scintillation counter (Packard Topcount). Compound inhibition potency on JNK was measured by IC50 value generated from ten concentration inhibition curves fitted into the 3-parameter model: % inhibition=Maximum/(1+(IC50/[Inhibitor])^slope). Data were analyzed on Microsoft Excel for parameter estimation.
`CCN1CCN(C(=O)[C@H]2CC[C@H](Nc3nccc(-n4ccc5c(N6CCC(S(C)(=O)=O)CC6)cccc54)n3)CC2)CC1` [Compound I-46, (4-Ethyl-piperazin-1-yl)-(4-{4-[4-(4-methanesulfonyl-piperidin-1-yl)-indol-1-yl]-pyrimidin-2-ylamino}-cyclohexyl)-methanone]: the IC50 amounted to 36 nM.

For `N#CCC(=O)N1CCN(c2cccc3c2ccn3-c2ccnc(N[C@H]3CC[C@@H](O)C3)n2)CC1` [Compound I-58, 3-(4-{1-[2-((1S,3R)-3-Hydroxy-cyclopentylamino)-pyrimidin-4-yl]-1H-indol-4-yl}-piperazin-1-yl)-3-oxo-propionitrile], the midpoint of inhibition, the IC50, lay at 806 nM.

As to `CC(C)(O)[C@H]1CC[C@H](Nc2nccc(-n3ccc4c(N5CCN(C(=O)CC#N)CC5)cccc43)n2)CC1` [Compound I-45, 3-[4-(1-{2-[4-(1-Hydroxy-1-methyl-ethyl)-cyclohexylamino]-pyrimidin-4-yl}-1H-indol-4-yl)-piperazin-1-yl]-3-oxo-propionitrile], it took 33.4 nM to reach half-maximal inhibition (IC50).

As to `CS(=O)(=O)N[C@H]1CC[C@H](Nc2nccc(-n3ccc4c(N5CCN(S(N)(=O)=O)CC5)cccc43)n2)CC1` [Compound I-8, 4-{1-[2-(4-Methanesulfonylamino-cyclohexylamino)-pyrimidin-4-yl]-1H-indol-4-yl}-piperazine-1-sulfonic acid amide], the IC50 worked out at 82.3 nM.

`CC(=O)N1CCN(c2cccc3c2ccn3-c2ccnc(N[C@H]3CC[C@H](C(C)(C)O)CC3)n2)CC1` [Compound I-43, 1-[4-(1-{2-[4-(1-Hydroxy-1-methyl-ethyl)-cyclohexylamino]-pyrimidin-4-yl}-1H-indol-4-yl)-piperazin-1-yl]-ethanone] registered an IC50 of 432 nM.

For the compound `CS(=O)(=O)C1CCN(c2cccc3c2ccn3-c2ccnc(N[C@H]3CC[C@H](C(=O)N4CCn5ccnc5C4)CC3)n2)CC1` [Compound I-54, (5,6-Dihydro-8H-imidazo[1,2-a]pyrazin-7-yl)-(4-{4-[4-(4-methanesulfonyl-piperidin-1-yl)-indol-1-yl]-pyrimidin-2-ylamino}-cyclohexyl)-methanone], inhibition was half-maximal at 15.2 nM (IC50).

Compound `CS(=O)(=O)C1CCN(c2cccc3c2ccn3-c2ccnc(N[C@H]3CC[C@H](C(=O)N4CCN5CCCC5C4)CC3)n2)CC1` (some centres unmarked) [Compound I-52, (Hexahydro-pyrrolo[1,2-a]pyrazin-2-yl)-(4-{4-[4-(4-methanesulfonyl-piperidin-1-yl)-indol-1-yl]-pyrimidin-2-ylamino}-cyclohexyl)-methanone] had a half-inhibitory concentration (IC50) of 21.8 nM.

For the compound `CCOC1CCN(C(=O)[C@H]2CC[C@H](Nc3nccc(-n4ccc5c(N6CCC(S(C)(=O)=O)CC6)cccc54)n3)CC2)CC1` [Compound I-30, (4-Ethoxy-piperidin-1-yl)-(4-{4-[4-(4-methanesulfonyl-piperidin-1-yl)-indol-1-yl]-pyrimidin-2-ylamino}-cyclohexyl)-methanone], the concentration for half-maximal inhibition (IC50) worked out at 82.7 nM.

In turn, `CC(=O)N1CCN(c2cccc3c2ccn3-c2ccnc(N[C@H]3CC[C@H](CN4CC[C@@H](O)C4)CC3)n2)CC1` [Compound I-29, 1-[4-(1-{2-[4-((R)-3-Hydroxy-pyrrolidin-1-ylmethyl)-cyclohexylamino]-pyrimidin-4-yl}-1H-indol-4-yl)-piperazin-1-yl]-ethanone] came in with an IC50 of 525 nM.

Take `CC(C)(C)N1CCN(C(=O)[C@H]2CC[C@H](Nc3nccc(-n4ccc5c(N6CCC(S(C)(=O)=O)CC6)cccc54)n3)CC2)CC1` [Compound I-48, (4-tert-Butyl-piperazin-1-yl)-(4-{4-[4-(4-methanesulfonyl-piperidin-1-yl)-indol-1-yl]-pyrimidin-2-ylamino}-cyclohexyl)-methanone]: the midpoint of inhibition, the IC50, lay at 54.5 nM.

With `CS(=O)(=O)C1CCN(c2cccc3c2ccn3-c2ccnc(N[C@H]3CC[C@H](C(=O)N4CCN(C5CC5)CC4)CC3)n2)CC1` [Compound I-47, (4-Cyclopropyl-piperazin-1-yl)-(4-{4-[4-(4-methanesulfonyl-piperidin-1-yl)-indol-1-yl]-pyrimidin-2-ylamino}-cyclohexyl)-methanone], the concentration for half-maximal inhibition (IC50) is 29.6 nM.

`CC(=O)N1CCN(c2cccc3c2c(C(N)=O)cn3-c2ccnc(N[C@H]3CC[C@H](CS(C)(=O)=O)CC3)n2)CC1` [Compound I-64, 4-(4-Acetyl-piperazin-1-yl)-1-[2-(4-methanesulfonylmethyl-cyclohexylamino)-pyrimidin-4-yl]-1H-indole-3-carboxylic acid amide] yielded a concentration for half-maximal inhibition (IC50) of 13.9 nM.

Turning to `N#CCC(=O)N1CCN(c2cccc3c2ccn3-c2ccnc(N[C@H]3CC[C@H](CO)CC3)n2)CC1` [Compound I-27, 3-(4-{1-[2-(4-Hydroxymethyl-cyclohexylamino)-pyrimidin-4-yl]-1H-indol-4-yl}-piperazin-1-yl)-3-oxo-propionitrile], half-maximal inhibition (IC50) was put at 12.8 nM.

Consider `N#CCC(=O)N1CCN(c2cccc3c2ccn3-c2ccnc(N[C@H]3CCC[C@@H](O)C3)n2)CC1` [Compound I-35, 3-(4-{1-[2-((1S,3R)-3-Hydroxy-cyclohexylamino)-pyrimidin-4-yl]-1H-indol-4-yl}-piperazin-1-yl)-3-oxo-propionitrile], for which the 50% inhibitory concentration (IC50) was 177 nM.

`CS(=O)(=O)C1CCN(c2cccc3c2ccn3-c2ccnc(N[C@H]3CC[C@H](C(=O)N4CCN(C5CCC5)CC4)CC3)n2)CC1` [Compound I-49, (4-Cyclobutyl-piperazin-1-yl)-(4-{4-[4-(4-methanesulfonyl-piperidin-1-yl)-indol-1-yl]-pyrimidin-2-ylamino}-cyclohexyl)-methanone]: the IC50 was found to be 59.8 nM.

In turn, `CS(=O)(=O)N[C@H]1CC[C@H](Nc2nccc(-n3ccc4c(N5CCN(C(N)=O)CC5)cccc43)n2)CC1` [Compound I-7, 4-{1-[2-(4-Methanesulfonylamino-cyclohexylamino)-pyrimidin-4-yl]-1H-indol-4-yl}-piperazine-1-carboxylic acid amide] gave a 50% inhibitory concentration (IC50) of 86.1 nM.

Take `N#CCC(=O)N1CCN(c2cccc3c2ccn3-c2ccnc(N[C@H]3CC[C@H](CN4CC[C@H](O)C4)CC3)n2)CC1` [Compound I-28, 3-[4-(1-{2-[4-((S)-3-Hydroxy-pyrrolidin-1-ylmethyl)-cyclohexylamino]-pyrimidin-4-yl}-1H-indol-4-yl)-piperazin-1-yl]-3-oxo-propionitrile]: inhibition was half-maximal at 55.5 nM (IC50).

Turning to `CS(=O)(=O)C1CCN(c2cccc3c2ccn3-c2ccnc(N[C@H]3CC[C@H](C(=O)N4CCN5CCCCC5C4)CC3)n2)CC1` (some centres unmarked) [Compound I-50, (4-{4-[4-(4-Methanesulfonyl-piperidin-1-yl)-indol-1-yl]-pyrimidin-2-ylamino}-cyclohexyl)-(octahydro-pyrido[1,2-a]pyrazin-2-yl)-methanone], the 50% inhibitory concentration (IC50) stood at 15.6 nM.

With `CS(=O)(=O)N[C@H]1CC[C@H](Nc2nccc(-n3ccc4c(N5CCN(S(C)(=O)=O)CC5)cccc43)n2)CC1` [Compound I-3, N-(4-{4-[4-(4-Methanesulfonyl-piperazin-1-yl)-indol-1-yl]-pyrimidin-2-ylamino}-cyclohexyl)-methanesulfonamide], the half-inhibitory concentration (IC50) was determined as 182 nM.

As to `CS(=O)(=O)N[C@H]1CC[C@H](Nc2nccc(-n3ccc4c(N5CCNCC5)cccc43)n2)CC1` [Compound I-1, N-{4-[4-(4-Piperazin-1-yl-indol-1-yl)-pyrimidin-2-ylamino]-cyclohexyl}-methanesulfonamide], the IC50 worked out at 1430 nM.

The term IC50 denotes the concentration at which inhibition is half-maximal. High values mean lower potency, low ones higher potency.
